Data reported in patent publication US11180487B2, “Substituted cyanoindoline derivatives as NIK inhibitors” (Janssen Pharmaceutica NV, priority 2016, dated 2021).
Like-named read-outs stand apart in the source and are kept apart here.

Tests used:
[1] = target: recombinant human NF-kappaB-inducing kinase (NIK/MAP3K14) (Homo sapiens, UniProt Q99558); test: Inhibition of auto-phosphorylation of recombinant human NIK/MAP3K14 activity (AlphaScreen), Biological Assay A; type: biochemical; settings: averaged values over all measurements on all batches
Chain of recombinant human NF-kappaB-inducing kinase (NIK/MAP3K14) (Q99558 whole entry): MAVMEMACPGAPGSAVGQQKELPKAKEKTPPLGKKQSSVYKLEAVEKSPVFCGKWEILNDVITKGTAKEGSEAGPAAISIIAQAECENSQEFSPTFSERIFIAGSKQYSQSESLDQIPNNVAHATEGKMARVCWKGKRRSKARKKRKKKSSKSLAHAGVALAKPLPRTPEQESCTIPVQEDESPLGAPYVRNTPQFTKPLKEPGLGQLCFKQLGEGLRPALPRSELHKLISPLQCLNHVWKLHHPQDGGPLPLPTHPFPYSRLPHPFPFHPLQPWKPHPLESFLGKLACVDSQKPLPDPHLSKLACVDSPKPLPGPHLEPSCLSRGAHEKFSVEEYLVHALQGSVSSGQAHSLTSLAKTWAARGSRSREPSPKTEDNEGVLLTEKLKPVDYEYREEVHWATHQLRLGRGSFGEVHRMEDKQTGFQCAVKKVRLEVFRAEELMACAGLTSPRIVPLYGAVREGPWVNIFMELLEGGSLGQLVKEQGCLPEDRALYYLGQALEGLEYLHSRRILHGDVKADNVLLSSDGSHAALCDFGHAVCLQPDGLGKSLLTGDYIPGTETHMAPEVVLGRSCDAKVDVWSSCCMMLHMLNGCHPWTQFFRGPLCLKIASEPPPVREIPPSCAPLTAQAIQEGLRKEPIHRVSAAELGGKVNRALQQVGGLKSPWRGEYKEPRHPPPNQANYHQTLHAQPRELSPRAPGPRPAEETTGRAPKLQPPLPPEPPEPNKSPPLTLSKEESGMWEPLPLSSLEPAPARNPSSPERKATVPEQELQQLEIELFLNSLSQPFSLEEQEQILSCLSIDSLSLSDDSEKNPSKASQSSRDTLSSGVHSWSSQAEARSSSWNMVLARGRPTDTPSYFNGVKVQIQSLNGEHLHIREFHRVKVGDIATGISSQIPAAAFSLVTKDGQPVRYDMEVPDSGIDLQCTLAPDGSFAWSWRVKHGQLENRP
Procedure: Inhibition of Auto-Phosphorylation of Recombinant Human NF-kappaB-Inducing Kinase (NIK/MAP3K14) Activity (AlphaScreen®)
NIK/MAP3K14 auto-phosphorylation activity was measured using the AlphaScreen® (αscreen) format (Perkin Elmer). All compounds tested were dissolved in dimethyl sulfoxide (DMSO) and further dilutions were made in assay buffer. Final DMSO concentration was 1% (v/v) in assays. Assay buffer was 50 mM Tris pH 7.5 containing 1 mM EGTA (ethylene glycol tetraacetic acid), 1 mM DTT (dithiothreitol), 0.1 mM Na3VO4, 5 mM MgCl2, 0.01% Tween® 20. Assays were carried out in 384 well Alphaplates (Perkin Elmer). Incubations consisted of compound, 25 microM Adenosine-5′-triphosphate (ATP), and 0.2 nM NIK/MAP3K14. Incubations were initiated by addition of GST-tagged NIK/MAP3K14 enzyme, carried out for 1 h at 25° C. and terminated by addition of stop buffer containing anti-phospho-IKK Ser176/180 antibody. Protein A Acceptor and Glutathione-Donor beads were added before reading using an EnVision® Multilabel Plate Reader (Perkin Elmer). Signal obtained in the wells containing blank samples was subtracted from all other wells and IC50's were determined by fitting a sigmoidal curve to % inhibition of control versus Log10 compound concentration.

[2] = test system: KMS12-BM (NIK WT) multiple myeloma cells; test: Antiproliferative activity on KMS12-BM multiple myeloma cells (CellTiter-Glo, 96 hr), Biological Assay C; type: cell-based, human; settings: averaged values, read-out: KMS-12 Proliferation inhibition (IC50 (nM))
Procedure: (§1) Determination of Antiproliferative Activity on JJN-3 (NIK Translocated) and KMS12-BM (NIK WT) Multiple Myeloma Cells
(§2) All compounds tested were dissolved in DMSO and further dilutions were made in culture medium. Final DMSO concentration was 0.3% (v/v) in cell proliferation assays. Viability was assessed using CellTiter-Glo cell viability assay kit (Promega). The human JJN-3 and KMS12-BM cells (DSMZ) were cultured in RPMI 1640 medium supplemented with 2 mM L-glutamine, and 10% fetal calf serum (PAA). Cells were routinely kept as suspension cells at 37° C. in a humidified 5% CO2 atmosphere. Cells were passaged at a seeding density of 0.2×10^6/ml twice a week. Cells were seeded in black tissue culture treated 96-well plates (Perkin Elmer). Densities used for plating ranged from 15000 (JJN3) to 20000 (KMS12BM) cells per well in a total volume of 135 μl medium. Drugs and/or solvents were added (15 μl) to a final volume of 150 μl. Following 96 hr of treatment, plates were removed from the incubator and allowed to equilibrate to room temperature for approx 10 min. 75 μl CellTiter-Glo reagent was added to each well that was then covered (Perkin Elmer Topseal) and shaken on plate shaker for 10 min. Luminescence was measured on a HTS Topcount (Perkin Elmer).
(§3) Within an experiment, the results for each treatment were the mean of 2 replicate wells. For initial screening purposes, compounds were tested using a 9 point dilution curve (serial 1:3 dilutions). For each experiment, controls (containing no drug) and a blank incubation (containing cells read at the time of compound addition) were run in parallel. The blank value was subtracted from all control and sample values. For each sample, the mean value for cell growth (in relative light units) was expressed as a percentage of the mean value for cell growth of the control.

[3] = test system: JJN-3 (NIK translocated) multiple myeloma cells; test: Antiproliferative activity on JJN-3 multiple myeloma cells (CellTiter-Glo, 96 hr), Biological Assay C; type: cell-based, human; settings: JJN-3 (NIK translocated) cells, averaged values, read-out: JJN-3 Proliferation inhibition (IC50 (nM))
Procedure: as §1, §2, §3

Row | Structure (SMILES) | IC50 [1] | IC50 ([2]; Homo sapiens, KMS-12-BM, 96 h) | IC50 ([3]; Homo sapiens, JJN-3, 96 h) | melting point | IC50 [2] | IC50 [3]
1 | COc1cc(N2CCC(OC)CC2)c(Cl)cc1Nc1nccc(-c2cc(C#N)c3c(c2)C(C)(C)CN3)n1 [Compound 92] | 138 nM | > 10000 nM | 389 nM | – | – | –
2 | CC1(CO)CNc2c(C#N)cc(-c3ccnc(Nc4ccc(OC5CCOCC5)c(C(F)(F)F)c4)n3)cc21 (stereo not drawn) [Compound 37] | 37.2 nM | 4170 nM | 17 nM | 221 °C | – | –
3 | CC1(CO)CNc2c(C#N)cc(-c3ccnc(Nc4cc(C#N)ccc4Cl)n3)cc21 (stereo not drawn) [Compound 32] | 4 nM | > 10000 nM | 170 nM | 274 °C | – | –
4 | COc1ccc(Cl)cc1Nc1ncc(F)c(-c2cc(C#N)c3c(c2)[C@@](C)(CO)CN3)n1 [Compound 48] | 8.9 nM | > 10000 nM | 447 nM | > 250 °C | – | –
5 | CN1CCCC(Oc2ccc(Cl)cc2Nc2nccc(-c3cc(C#N)c4c(c3)C(C)(C)CN4)n2)C1 (stereo not drawn) [Compound 101] | 49 nM | 1350 nM | 447 nM | 104 °C | – | –
6 | Cc1ccc(C#N)cc1Nc1nccc(-c2cc(C#N)c3c(c2)C(C)(CO)CN3)n1 (stereo not drawn) [Compound 26] | 3.7 nM | > 10000 nM | 255 nM | 195 °C | – | –
7 | COc1cc(C(=O)N2CC[C@@H]3CNC[C@@H]32)c(Cl)cc1Nc1nccc(-c2cc(C#N)c3c(c2)C(C)(C)CN3)n1 (relative stereo) [Compound 122] | 4.7 nM | ~4470 nM | 35 nM | – | – | –
8 | CN(C)C(=O)c1ccc(Cl)cc1Nc1nccc(-c2cc(C#N)c3c(c2)C(C)(CO)CN3)n1 (stereo not drawn) [Compound 56] | 126 nM | > 10000 nM | 1740 nM | 170 °C | – | –
9 | CC1(CO)CNc2c(C#N)cc(-c3ccnc(Nc4cc(Cl)ccc4OC4CCN(C5CC5)CC4)n3)cc21 (stereo not drawn) [Compound 35] | 37.2 nM | 7080 nM | 129 nM | 192 °C | – | –
10 | COc1cc(C(=O)NC2CNCC2O)c(Cl)cc1Nc1nccc(-c2cc(C#N)c3c(c2)C(C)(C)CN3)n1 (mixture of isomers) [Compound 124] | 1.6 nM | 437 nM | 525 nM | – | – | –
11 | Cc1ccc(Cl)cc1Nc1nccc(-c2cc(C#N)c3c(c2)C(C)(CO)CN3)n1 (stereo not drawn) [Compound 27] | 9.2 nM | > 10000 nM | 106 nM | 289 °C | – | –
12 | CC1(C)CNc2c(C#N)cc(-c3ccnc(Nc4cc(Cl)ccc4S(C)(=O)=O)n3)cc21 [Compound 90] | 219 nM | > 10000 nM | > 10000 nM | – | – | –
13 | Cc1cc(Br)c(Cl)cc1Nc1nccc(-c2cc(C#N)c3c(c2)C(C)(CO)CN3)n1 (stereo not drawn) [Compound 51] | 49 nM | > 10000 nM | 363 nM | 200 °C | – | –
14 | CC1(C)CNc2c(C#N)cc(-c3ccnc(Nc4cc(Cl)ccc4OC4CCOCC4)n3)cc21 [Compound 103] | 105 nM | > 10000 nM | 3720 nM | 126 °C | – | –
15 | COc1ccc(Cl)cc1Nc1ncc(F)c(-c2cc(C#N)c3c(c2)C(C)(CO)CN3)n1 (stereo not drawn) [Compound 47] | 15.1 nM | > 10000 nM | 776 nM | > 250 °C | – | –
16 | CCN1CCN(c2cc(C)c(Nc3nccc(-c4cc(C#N)c5c(c4)C(C)(C)CN5)n3)cc2Cl)CC1 [Compound 91] | 7.2 nM | > 10000 nM | ~107 nM | – | – | –
17 | COc1cc(C(=O)N2CCCC(O)CC2)c(Cl)cc1Nc1nccc(-c2cc(C#N)c3c(c2)C(C)(C)CN3)n1 (stereo not drawn) [Compound 119] | 7.1 nM | 1380 nM | 28 nM | – | – | –
18 | COc1cc(OCCN2CCN(C)CC2)c(Cl)cc1Nc1nccc(-c2cc(C#N)c3c(c2)C(C)(C)CN3)n1 [Compound 95] | 9.3 nM | > 10000 nM | 129 nM | – | – | –
19 | COc1cc(N2CCN(C3CC3)CC2)c(Cl)cc1Nc1nccc(-c2cc(C#N)c3c(c2)C(C)(C)CN3)n1 [Compound 98] | 129 nM | > 10000 nM | 105 nM | – | – | –

Row | Structure (SMILES) | IC50 [1] | IC50 ([2]; Homo sapiens, KMS-12-BM, 96 h) | IC50 ([3]; Homo sapiens, JJN-3, 96 h) | melting point | IC50 [2] | IC50 [3]
20 | COc1cc(C(=O)NC2CC(F)(F)C2)c(Cl)cc1Nc1nccc(-c2cc(C#N)c3c(c2)C(C)(C)CN3)n1 [Compound 118] | 25.7 nM | > 10000 nM | 933 nM | – | – | –
21 | COCCN1CCN(c2cc(OC)c(Nc3nccc(-c4cc(C#N)c5c(c4)C(C)(C)CN5)n3)cc2Cl)CC1 [Compound 89] | 20.9 nM | > 10000 nM | ~100 nM | – | – | –
22 | CNC(=O)c1ccc(C)c(Nc2ncnc(-c3cc(C#N)c4c(c3)[C@@](C)(CO)CN4)n2)c1 [Compound 214] | 6.9 nM | – | – | 252 °C | – | –
23 | COCc1cc(OC)c(Nc2nccc(-c3cc(C#N)c4c(c3)C(C)(C)CN4)n2)cc1Cl [Compound 88] | 85.1 nM | > 10000 nM | 178 nM | – | – | –
24 | COc1cc(C(=O)NC2CCC(O)C2)c(Cl)cc1Nc1nccc(-c2cc(C#N)c3c(c2)C(C)(C)CN3)n1 (stereo not drawn) [Compound 116] | 6.8 nM | – | – | – | > 10000 nM | 162 nM
25 | COc1cc(N2CCN(C(C)C)CC2)c(Cl)cc1Nc1nccc(-c2cc(C#N)c3c(c2)C(C)(C)CN3)n1 [Compound 93] | 11.5 nM | > 10000 nM | 83 nM | – | – | –
26 | C[C@]1(CO)CNc2c(C#N)cc(-c3ccnc(Nc4ccccc4P(C)(C)=O)n3)cc21 [Compound 62] | 912 nM | – | – | 228 °C | – | –
27 | COCCOc1cc(C2CCOCC2)ccc1Nc1nccc(-c2cc(C#N)c3c(c2)[C@@](C)(CO)CN3)n1 [Compound 61] | 11 nM | > 10000 nM | 186 nM | – | – | –
28 | COc1cc(C(=O)NC2CCC(O)C2)c(Cl)cc1Nc1nccc(-c2cc(C#N)c3c(c2)C(C)(C)CN3)n1 (stereo not drawn) [Compound 115] | 4.9 nM | > 10000 nM | 166 nM | – | – | –
29 | CC(C)Oc1ccc(C(F)(F)F)cc1Nc1nccc(-c2cc(C#N)c3c(c2)C(C)(CO)CN3)n1 (stereo not drawn) [Compound 76] | 186 nM | > 10000 nM | 2340 nM | – | – | –
30 | CNCCOc1ccc(Cl)cc1Nc1nccc(-c2cc(C#N)c3c(c2)C(C)(C)CN3)n1 [Compound 109] | 53.7 nM | – | 676 nM | 152 °C | – | –
31 | COC(=O)c1cc(Nc2nccc(-c3cc(C#N)c4c(c3)C(C)(CO)CN4)n2)cc(C(F)(F)F)c1 (stereo not drawn) [Compound 77] | 46.8 nM | ~2460 nM | 126 nM | – | – | –
32 | COc1cc(C(=O)N2CC3C(CO)C3C2)c(Cl)cc1Nc1nccc(-c2cc(C#N)c3c(c2)C(C)(C)CN3)n1 (stereo not drawn) [Compound 117] | 4.7 nM | 1550 nM | 19 nM | – | – | –
33 | COCCN1CCC(c2cc(OC)c(Nc3nccc(-c4cc(C#N)c5c(c4)C(C)(C)CN5)n3)cc2C)CC1 [Compound 94] | 9.8 nM | > 10000 nM | 166 nM | – | – | –
34 | COc1cc(S(C)(=O)=O)c(F)cc1Nc1nccc(-c2cc(C#N)c3c(c2)C(C)(C)CN3)n1 [Compound 96] | 9.1 nM | > 10000 nM | ~81 nM | – | – | –
35 | COc1cc(N2CCC(O)C2)c(Cl)cc1Nc1nccc(-c2cc(C#N)c3c(c2)C(C)(C)CN3)n1 (stereo not drawn) [Compound 97] | 45.7 nM | 4360 nM | 59 nM | – | – | –
36 | COc1cc(C(=O)N2CC(O)C2)c(Cl)cc1Nc1nccc(-c2cc(C#N)c3c(c2)C(C)(C)CN3)n1 [Compound 110] | 4.2 nM | > 10000 nM | 193 nM | – | – | –
37 | COc1cc(C(=O)N2CC3CC(C2)C3O)c(Cl)cc1Nc1nccc(-c2cc(C#N)c3c(c2)C(C)(C)CN3)n1 (stereo not drawn) [Compound 120] | 15.5 nM | > 10000 nM | 25 nM | – | – | –
